Measured values: patent US10730878B2, “Fused quinoline compounds as PI3K/mTOR inhibitors” (ADVENCHEN PHARMACEUTICALS, LLC, priority 2015, dated 2020)

target: T1, mTor (Homo sapiens, UniProt P42345); experiment: mTor kinase inhibition, % activity at 0.03 μM (kinases panel screening); format: biochemical; settings: 0.03 μM compound
T1 construct: purchased Millipore/Merck KGA of Europe (panel screening service)
Description: In vitro kinase inhibition activities included Pi3k and mTor activities can be tested with Millipore/Merck KGA of Europe in their kinases panel screening. Animal antitumor activity testing can be conducted by various cancer xenograft models for a compound of formula I. […]

Molecule | mTor % activity @0.03 μM [%]
Cc1nnc2n(-c3ccc(C(C)(C)C#N)cc3)c3c4cc(-c5cncnc5)ccc4ncc3n12 [5-pyrimidine; CH3; CH3, CH3; CN, 2-methyl-2-{4-[12-methyl-4-(pyrimidin-5-yl)-8,11,13,14,16-pentaazatetracyclo-[8.6.0.0^2,^7.0^11,^1^5]hexadeca-1(10),2,4,6,8,12,14-heptaen-16-yl]phenyl}propanenitrile] | 90
N-(5-{16-[4-(1-cyano-1-methylethyl)phenyl]-8,11,13,14,16-pentaazatetracyclo[8.6.0.0^2,^7.0^11,^1^5]-hexadeca-1(10),2,4,6,8,12,14-heptaen-4-yl)}pyridin-2-yl)-2-(pyrrolidin-1-yl)acetamide | −2
C#CC(C)(C)c1ccc(-n2c3c4cc(-c5ccc(OC)nc5)ccc4ncc3n3c(CC)nnc23)cc1 [12-ethyl-4-(6-methoxypyridin-3-yl)-16-[4-(2-methylbut-3-yn-2-yl)phenyl]-8,11,13,14,16-pentaazatetracyclo[8.6.0.0^2,^7.0^11,^1^5]hexadeca-1(10),2,4,6,8,12,14-heptaene] | 69
CCc1nnc2n(-c3ccc(C(C)(C)C#N)cc3)c3c4cc(-c5cnc6[nH]ccc6c5)ccc4ncc3n12 [2-[4-(12-ethyl-4-{(1H-pyrrolo[2,3-b]pyridin-5-yl}-8,11,13,14,16-pentaazatetracyclo-[8.6.0.0^2,^7.0^11,^1^5]hexadec-1(10),2,4,6,8,12,14-heptaen-16-yl)phenyl]-2-methylpropanenitrile] | 29
N-{5-[16-(4-tert-butylphenyl)-8,11,13,14,16-pentaazatetracyclo[8.6.0.0^2,^7.0^11,^1^5]-hexadeca-1(10),2,4,6,8,12,14-heptaen-4-yl]pyridin-2-yl}-2-(methylamino)acetamide | 8
CC(C)(C)c1ccc(-n2c3c4cc(-c5cnc6ccccc6c5)ccc4ncc3n3cnnc23)cc1 [3-quinoline; H; CH3, CH3; CH3, 16-(4-tert-butylphenyl)-4-(quinolin-3-yl)-8,11,13,14,16-pentaazatetracyclo[8.6.0.0^2,^7.0^11,^1^5]-hexadeca-1(10), 2,4,6,8,12,14-heptaene] | 22
CC(=O)Nc1ccc(-c2ccc3ncc4c(c3c2)n(-c2ccc(C(C)(C)C#N)cc2)c2nncn42)cn1 [N-(5-{16-[4-(1-cyano-1-methylethyl)phenyl]-8,11,13,14,16-pentaazatetracyclo-[8.6.0.0^2,^7.0^11,^1^5]hexadeca-1(10),2,4,6,8,12,14-heptaen-4-yl}pyridin-2-yl)acetamide] | −10
COc1ccc(-c2ccc3ncc4c(c3c2)n(-c2ccc(C(C)(C)C)cc2)c2nncn42)cn1 [2-methoxy-5-pyridine; H; CH3, CH3; CH3, 16-(4-tert-butylphenyl)-4-(6-methoxypyridin-3-yl)-8,11,13,14,16-pentaazatetracyclo-[8.6.0.0^2,^7.0^11,^1^5]hexadec-1(10),2,4,6,8,12,14-heptaene] | 15
CC(C)(C#N)c1ccc(-n2c3c4cc(-c5cncnc5)ccc4ncc3n3cnnc23)cc1 [5-pyrimidine; H; CH3, CH3; CN, 2-methyl-2-{4-[4-(pyrimidin-5-yl)-8,11,13,14,16-pentaazatetracyclo[8.6.0.0^2,^7.0^11,^1^5]hexadeca-1(10),2,4,6,8,12,14-heptaen-16-yl]phenyl}propanenitrile] | 64
CCc1nnc2n(-c3ccc(C(C)(C)C#N)cc3)c3c4cc(-c5cncnc5)ccc4ncc3n12 [5-pyrimidine; CH2CH3; CH3, CH3; CN, 2-{4-[12-ethyl-4-(pyrimidin-5-yl)-8,11,13,14,16-pentaazatetracyclo[8.6.0.0^2,^7.0^11,^1^5]-hexadeca-1(10),2,4,6,8,12,14-heptaen-16-yl]phenyl}-2-methylpropanenitrile] | 94
CCc1nnc2n(-c3ccc(C(C)(C)C#N)cc3)c3c4cc(-c5ccc(NC(C)=O)nc5)ccc4ncc3n12 [N-(5-{(16-[4-(1-cyano-1-methylethyl)phenyl]-12-ethyl-8,11,13,14,16-pentaazatetracyclo-[8.6.0.0^2,^7.0^11,^1^5]hexadeca-1(10), 2,4,6,8,12,14-heptaen-4-yl)}pyridin-2-yl)acetamide] | 72
Cc1nnc2n(-c3ccc(C(C)(C)C)cc3)c3c4cc(-c5cncnc5)ccc4ncc3n12 [5-pyrimidine; CH3; CH3, CH3; CH3, 16-(4-tert-butylphenyl)-12-methyl-4-(pyrimidin-5-yl)-8,11,13,14,16-pentaazatetracyclo-[8.6.0.0^2,^7.0^11,^1^5]hexadeca-1(10), 2,4,6,8,12,14-heptaene] | 104
COc1ccc(-c2ccc3ncc4c(c3c2)n(-c2ccc(C(C)(C)C)cc2)c2nnc(C)n42)cn1 [2-methoxy-5-pyridine; CH3; CH3, CH3; CH3, 16-(4-tert-butylphenyl)-4-(6-methoxypyridin-3-yl)-12-methyl-8,11,13,14,16-pentaazatetra-cyclo[8.6.0.0^2,^7.0^11,^1^5]hexadeca-1(10), 2,4,6,8,12,14-heptaene] | 97
C#CC(C)(C)c1ccc(-n2c3c4cc(-c5ccc(N)nc5)ccc4ncc3n3c(CC)nnc23)cc1 [5-pyridin-2-amine; CH2CH3; CH3, CH3; CN, 5-{12-ethyl-16-[4-(2-methylbut-3-yn-2-yl)phenyl]-8,11,13,14,16-pentaazatetracyclo-[8.6.0.0^2,^7.0^11,^1^5]hexadeca-1(10),2,4,6,8,12,14-heptaen-4-yl}pyridin-2-amine] | 21
N-(5-{16-[4-(1-cyano-1-methylethyl)phenyl]-8,11,13,14,16-pentaazatetracyclo[8.6.0.0^2,^7.0^11,^1^5]-hexadeca-1(10), 2,4,6,8,12,14-heptaen-4-yl)}pyridin-2-yl)-2-(morpholin-4-yl)acetamide | 72
5-[16-(4-tert-butylphenyl)-12-ethyl-8,11,13,14,16-pentaazatetracyclo[8.6.0.0^2,^7.0^11,^1^5]hexadeca-1(10),2,4,6,8,12,14-heptaen-4-yl]-N-methylpyridin-2-amine | 51
C#CC(C)(C)c1ccc(-n2c3c4cc(-c5ccc(OC)nc5)ccc4ncc3n3c(C)nnc23)cc1 [2-methoxy-5-pyridine; CH3; CH3, CH3; CN, 4-(6-methoxypyridin-3-yl)-12-methyl-16-[4-(2-methylbut-3-yn-2-yl)phenyl]8,11,13,14,16-pentaazatetracyclo[8.6.0.0^2,^7.0^11,^1^5]hexadeca-1(10),2,4,6,8,12,14-heptaene] | 98
N-(5-{16-[4-(1-cyano-1-methylethyl)phenyl]-8,11,13,14,16-pentaazatetracyclo[8.6.0.0^2,^7.0^11,^1^5]-hexadeca-1(10), 2,4,6,8,12,14-heptaen-4-yl)}pyridin-2-yl)-2-(4-oxopiperidin-1-yl)acetamide | 54
CC(C)(C)c1ccc(-n2c3c4cc(-c5cccnc5)ccc4ncc3n3cnnc23)cc1 [3-pyridine; H; CH3, CH3; CH3, 16-(4-tert-butylphenyl)-4-(pyridin-3-yl)-8,11,13,14,16-pentaazatetracyclo[8.6.0.0^2,^7.0^11,^1^5]-hexadeca-1(10), 2,4,6,8,12,14-heptaene] | −4
Cc1nnc2n(-c3ccc(C(C)(C)C)cc3)c3c4cc(-c5cnc6[nH]ccc6c5)ccc4ncc3n12 [16-(4-tert-butylphenyl)-12-methyl-4-{1H-pyrrolo[2,3-b]pyridin-5-yl}-8,11,13,14,16-pentaaza-tetracyclo[8.6.0.0^2,^7.0^11,^1^5]hexadeca-1(10), 2,4,6,8,12,14-heptaene] | 54
CC(=O)Nc1ccc(-c2ccc3ncc4c(c3c2)n(-c2ccc(C(C)(C)C)cc2)c2nncn42)cn1 [N-{5-[16-(4-tert-butylphenyl)-8,11,13,14,16-pentaazatetracyclo[8.6.0.0^2,^7.0^11,^1^5]hexadeca-1(10),2,4,6,8,12,14-heptaen-4-yl]pyridin-2-yl}acetamide] | −6
Cc1nnc2n(-c3ccc(C(C)(C)C#N)cc3)c3c4cc(-c5cnc6[nH]ccc6c5)ccc4ncc3n12 [2-methyl-2-[4-(12-methyl-4-{1H-pyrrolo[2,3-b]pyridin-5-yl}-8,11,13,14,16-pentaazatetra-cyclo[8.6.0.0^2,^7.0^11,^1^5]hexadeca-1(10),2,4,6,8,12,14-heptaen-16-yl)phenyl]propanenitrile] | 15
CC(=O)Nc1ccc(-c2ccc3ncc4c(c3c2)n(-c2ccc(C(C)(C)C#N)cc2)c2nnc(C)n42)cn1 [N-(5-{16-[4-(1-cyano-1-methylethyl)phenyl]-12-methyl-8,11,13,14,16-pentaazatetracyclo-[8.6.0.0^2,^7.0^11,^1^5]hexadeca-1(10),2,4,6,8,12,14-heptaen-4-yl}pyridin-2-yl)acetamide] | 74
Cc1nnc2n(-c3ccc(C(C)(C)C#N)cc3)c3c4cc(-c5ccc(N)nc5)ccc4ncc3n12 [5-pyridin-2-amine; CH3; CH3, CH3; CN] | 64
5-[16-(4-tert-butylphenyl)-12-ethyl-8,11,13,14,16-pentaazatetracyclo[8.6.0.0^2,^7.0^11,^1^5]hexadeca-1(10),2,4,6,8,12,14-heptaen-4-yl]-N-[2-(pyrrolidin-1-yl)ethyl]pyridin-2-amine | 84
2-amino-N-(5-{16-[4-(1-cyano-1-methylethyl)phenyl]-8,11,13,14,16-pentaazatetra-cyclo[8.6.0.0^2,^7.0^11,^1^5]hexadeca-1(10), 2,4,6,8,12,14-heptaen-4-yl)}pyridin-2-yl)acetamide | 8
N-(5-{16-[4-(1-cyano-1-methylethyl)phenyl]-8,11,13,14,16-pentaazatetracyclo[8.6.0.0^2,^7.0^11,^1^5]-hexadeca-1(10), 2,4,6,8,12,14-heptaen-4-yl)}pyridin-2-yl)-2-(4-hydroxypiperidin-1-yl)acetamide | 17
